According to patent publication US20130190190A1, “MOLECULAR TARGETS FOR MODULATING INTRAOCCULAR PRESSURE AND DIFFERENTIATION OF STEROID RESPONSES VERSUS NON-RESPONDERS” (priority 2007, published 2013):

Experiment: Intraocular pressure (IOP) change in study eyes of patients after a single intravitreal triamcinolone acetonide (IVTA) injection
Assay type: in vivo, human
Conditions: 56 eyes
Method: Patients who were recruited were offered treatment with IVTA for various retinal diseases or who had received IVTA in the past. Each patient was treated with IVTA, 4 mg in 0.1 cc, for a variety of indications, at the discretion of the treating physician. Inclusion criteria included age greater than 18 years and the ability to give appropriate informed consent. Exclusion criteria included prior pars plana vitrectomy in the study eye, anterior-segment neovascularization in the study eye, the use of any medication intended to lower IOP in the study eye, or a history of glaucoma, suspected glaucoma, or ocular hypertension in the study eye. All IOP measurements were as per the treating physician's standard practice, typically either applanation tonometry or Tono-pen (Reichert, Depew, N.Y.). No standardized IOP measurement protocol was followed. Intraocular pressure (TOP) was recorded in the study eye prior to treatment with IVTA (baseline IOP). Follow-up was performed at the discretion of the treating physician. On each subsequent visit, IOP was recorded (follow-up IOP) for up to 1 year, or until the study eye was treated with any subsequent intraocular surgery, any subsequent intravitreal injection, or any medication intended to lower IOP. Therefore, during the time period relevant to this study, each eye received only one intravitreal injection. All treatment decisions were at the discretion of the treating physician. The highest follow-up IOP was recorded (maximum IOP). The primary outcome measure was the difference between maximum IOP and baseline IOP was calculated (A IOP), with a positive value indicating a rise in IOP.

CC1(C)O[C@@H]2C[C@H]3[C@@H]4CCC5=CC(=O)C=C[C@]5(C)[C@@]4(F)[C@@H](O)C[C@]3(C)[C@]2(C(=O)CO)O1 [IVTA, triamcinolone acetonide]
Mean Δ IOP (maximum IOP minus baseline IOP) (IVTA 4 mg in 0.1 cc intravitreal, follow-up up to 1 year, positive value = rise in IOP): 7 mmHg
Eyes with Δ IOP greater than 10 mmHg (IVTA 4 mg intravitreal, follow-up up to 1 year, 9 eyes): 16%
Eyes with Δ IOP less than 5 mmHg (IVTA 4 mg intravitreal, follow-up up to 1 year, 20 eyes): 36%
Eyes with Δ IOP 5-10 mmHg (IVTA 4 mg intravitreal, follow-up up to 1 year, 27 eyes): 48%
Mean maximum follow-up IOP (patients with retinal diseases, IVTA 4 mg in 0.1 cc, one intravitreal injection, highest IOP in follow-up up to 1 year, mean baseline IOP 15 mmHg): 22 mmHg
